Measurements from EP4635500A1, “THERAPEUTIC AGENT FOR BACTERIAL INFECTION” (Sumitomo Pharma Co., Ltd., priority 2022, dated 2024).
Converted amounts (≈) assume the structure as drawn. Where two headings read alike, the source gives them in different places.

What was measured:
Type in all cases: cell-based
Gram-positive bacteria = assay: MIC, agar dilution, anaerobic bacteria (Example 9, Tables 21, 26)
Prevotella spp. = assay: MIC, agar dilution, anaerobic bacteria (Example 9, Tables 18, 23); details: for MIC: (n)=Compound A µg/mL, 0=Compound A alone antibacterial
Porphyromonas spp. = assay: MIC, agar dilution, anaerobic bacteria (Example 9, Tables 19, 24); details: (n)=Compound A µg/mL, 0=Compound A alone antibacterial

`Cc1ncc([N+](=O)[O-])n1CCO` [Metronidazole] showed an MIC (Gram-positive bacteria; ATCC43255, KUB No. 3518 Clostridioides difficile ATCC 43255, read-out: MIC) of 0.5 µg/mL (≈ 2.92 µM), an MIC (Gram-positive bacteria; ATCC700057, KUB No. 2978 Clostridioides difficile ATCC 700057, read-out: MIC) of 0.5 µg/mL (≈ 2.92 µM) and an MIC (Gram-positive bacteria; ATCCBAA1803, KUB No. 3511 Clostridioides difficile ATCC BAA-1803, read-out: MIC) of 1 µg/mL (≈ 5.84 µM). The MIC (Gram-positive bacteria; ATCCBAA1870, KUB No. 3385 Clostridioides difficile ATCC BAA-1870, read-out: MIC) was 0.5 µg/mL (≈ 2.92 µM), the MIC (Gram-positive bacteria; Cutibacterium acnes, ATCC11827) was greater than 64 µg/mL and the MIC (Gram-positive bacteria; Finegoldia magna, ATCC29328) was 1 µg/mL (≈ 5.84 µM). For the same molecule, the MIC50 (Gram-positive bacteria; Gram-positive bacteria, read-out: MIC50) was 0.5 µg/mL (≈ 2.92 µM), the MIC90 (Gram-positive bacteria; Gram-positive bacteria, read-out: MIC90) was 2 µg/mL (≈ 11.7 µM) and the MIC (Gram-positive bacteria; KUB No. 3013 Bulleidia extructa, read-out: MIC) was 2 µg/mL (≈ 11.7 µM). It also gave an MIC (Gram-positive bacteria; KUB No. 3014 Atropobium rimae, read-out: MIC) of 2 µg/mL (≈ 11.7 µM), an MIC (Gram-positive bacteria; Olsenella uli) of 2 µg/mL (≈ 11.7 µM) and an MIC (Gram-positive bacteria; Peptoniphilus asaccharolyticus, ATCC14963) of 0.5 µg/mL (≈ 2.92 µM). For the same molecule, the MIC (Gram-positive bacteria; Peptoniphilus indolicus) was 0.25 µg/mL (≈ 1.46 µM), the MIC (Gram-positive bacteria; Peptostreptococcus anaerobius) was 0.5 µg/mL (≈ 2.92 µM) and the MIC (Gram-positive bacteria; Schaalia odontolytica, ATCC17929, KUB No. 3488 Actinomyces odontolyticus ATCC 17929, read-out: MIC) was 32 µg/mL (≈ 187 µM). The MIC (Prevotella spp.; KUB No. 2989 Prevotella histicola) was 0.5 µg/mL (≈ 2.92 µM), the MIC (Prevotella spp.; KUB No. 2991 Prevotella intermedia) was 0.5 µg/mL (≈ 2.92 µM) and the MIC (Prevotella spp.; KUB No. 2992 Prevotella buccae) was 1 µg/mL (≈ 5.84 µM). The MIC (Prevotella spp.; KUB No. 3005 Prevotella melaninogenica) was 1 µg/mL (≈ 5.84 µM), the MIC (Prevotella spp.; KUB No. 6558 Prevotella heparinolytica) was 0.25 µg/mL (≈ 1.46 µM) and the MIC (Prevotella spp.; KUB No. 6559 Prevotella intermedia) was 2 µg/mL (≈ 11.7 µM). The MIC (Prevotella spp.; KUB No. 6560 Prevotella nigrescens) was 0.5 µg/mL (≈ 2.92 µM), the MIC (Prevotella spp.; KUB No. 6561 Prevotella melaninogenica) was 1 µg/mL (≈ 5.84 µM) and the MIC (Prevotella spp.; KUB No. 6563 Prevotella nigrescens) was 0.5 µg/mL (≈ 2.92 µM). It also gave an MIC (Prevotella spp.; KUB No. 6564 Prevotella buccae) of 2 µg/mL (≈ 11.7 µM), an MIC (Prevotella spp.; KUB No. 6565 Prevotella nigrescens) of 0.5 µg/mL (≈ 2.92 µM) and an MIC (Prevotella spp.; KUB No. 6567 Prevotella melaninogenica) of 0.5 µg/mL (≈ 2.92 µM). It also gave an MIC (Prevotella spp.; KUB No. 6568 Prevotella intermedia) of 1 µg/mL (≈ 5.84 µM), an MIC (Prevotella spp.; KUB No. 6569 Prevotella nanceiensis) of 2 µg/mL (≈ 11.7 µM) and an MIC (Prevotella spp.; KUB No. 6570 Prevotella intermedia) of 2 µg/mL (≈ 11.7 µM). It also gave an MIC (Prevotella spp.; KUB No. 6571 Prevotella denticola) of 0.25 µg/mL (≈ 1.46 µM), an MIC (Prevotella spp.; KUB No. 6572 Prevotella melaninogenica) of 0.5 µg/mL (≈ 2.92 µM) and an MIC (Prevotella spp.; KUB No. 6574 Prevotella oris) of 0.5 µg/mL (≈ 2.92 µM). It also gave an MIC (Prevotella spp.; KUB No. 6575 Prevotella nigrescens) of 1 µg/mL (≈ 5.84 µM), an MIC (Prevotella spp.; KUB No. 6576 Prevotella intermedia) of 0.25 µg/mL (≈ 1.46 µM) and an MIC (Prevotella spp.; KUB No. 6579 Prevotella pallens) of 0.5 µg/mL (≈ 2.92 µM). For the same molecule, the MIC (Prevotella spp.; KUB No. 6581 Prevotella intermedia) was 2 µg/mL (≈ 11.7 µM), the MIC (Prevotella spp.; KUB No. 6582 Prevotella melaninogenica) was 0.5 µg/mL (≈ 2.92 µM) and the MIC (Prevotella spp.; KUB No. 6585 Prevotella baroniae) was 1 µg/mL (≈ 5.84 µM). For the same molecule, the MIC (Prevotella spp.; KUB No. 6587 Prevotella melaninogenica) was no more than 0.12 µg/mL, the MIC (Prevotella spp.; KUB No. 6588 Prevotella nigrescens) was 0.5 µg/mL (≈ 2.92 µM) and the MIC (Prevotella spp.; KUB No. 6589 Prevotella buccae) was 0.5 µg/mL (≈ 2.92 µM). The MIC (Prevotella spp.; KUB No. 6590 Prevotella buccae) was 0.5 µg/mL (≈ 2.92 µM), the MIC (Prevotella spp.; KUB No. 6591 Prevotella intermedia) was 0.5 µg/mL (≈ 2.92 µM) and the MIC (Prevotella spp.; KUB No. 6592 Prevotella jejuni) was 0.5 µg/mL (≈ 2.92 µM). It also gave an MIC (Prevotella spp.; KUB No. 6600 Prevotella intermedia) of 0.5 µg/mL (≈ 2.92 µM), an MIC (Prevotella spp.; KUB No. 6601 Prevotella melaninogenica) of 0.5 µg/mL (≈ 2.92 µM) and an MIC (Prevotella spp.; KUB No. 6603 Prevotella melaninogenica) of 0.25 µg/mL (≈ 1.46 µM). It also gave an MIC (Prevotella spp.; KUB No. 6609 Prevotella buccae) of 0.5 µg/mL (≈ 2.92 µM), an MIC (Prevotella spp.; KUB No. 6611 Prevotella nigrescens) of 1 µg/mL (≈ 5.84 µM) and an MIC (Prevotella spp.; KUB No. 6612 Prevotella oris) of 0.5 µg/mL (≈ 2.92 µM). For the same molecule, the MIC (Prevotella spp.; KUB No. 6613 Prevotella buccae) was 0.5 µg/mL (≈ 2.92 µM), the MIC (Prevotella spp.; KUB No. 6614 Prevotella intermedia) was 1 µg/mL (≈ 5.84 µM) and the MIC (Prevotella spp.; KUB No. 6615 Prevotella buccae) was 1 µg/mL (≈ 5.84 µM). It also gave an MIC (Prevotella spp.; KUB No. 6617 Prevotella buccae) of 2 µg/mL (≈ 11.7 µM), an MIC (Prevotella spp.; KUB No. 6618 Prevotella melaninogenica) of 0.25 µg/mL (≈ 1.46 µM) and an MIC (Prevotella spp.; KUB No. 6622 Prevotella loescheii) of 1 µg/mL (≈ 5.84 µM). It also gave an MIC (Prevotella spp.; KUB No. 6623 Prevotella nigrescens) of 1 µg/mL (≈ 5.84 µM), an MIC (Prevotella spp.; KUB No. 6625 Prevotella melaninogenica) of 0.5 µg/mL (≈ 2.92 µM) and an MIC (Prevotella spp.; KUB No. 6626 Prevotella loescheii) of 1 µg/mL (≈ 5.84 µM). For the same molecule, the MIC (Prevotella spp.; KUB No. 6629 Prevotella bivia) was 8 µg/mL (≈ 46.7 µM), the MIC (Prevotella spp.; KUB No. 6630 Prevotella nigrescens) was 0.5 µg/mL (≈ 2.92 µM) and the MIC (Prevotella spp.; KUB No. 6631 Prevotella jejuni) was 0.5 µg/mL (≈ 2.92 µM). The MICrange (Prevotella spp.; Prevotella spp.) was no more than 0.12 to 8 µg/mL, the MIC50 (Prevotella spp.; Prevotella spp., read-out: MIC50) was 0.5 µg/mL (≈ 2.92 µM) and the MIC90 (Prevotella spp.; Prevotella spp., read-out: MIC90) was 2 µg/mL (≈ 11.7 µM). The MIC (Prevotella spp.; Prevotella, KUB No. 6583 Prevotella nonceiensis) was 2 µg/mL (≈ 11.7 µM), the MIC (Prevotella spp.; Prevotella, KUB No. 6604 Prevotella nonceiensis) was 1 µg/mL (≈ 5.84 µM) and the MIC (Prevotella spp.; po, KUB No. 6566 Prevotella oralis) was 0.25 µg/mL (≈ 1.46 µM). It also gave an MIC (Porphyromonas spp.; KUB No. 6663 Porphyromonas gingivalis) of no more than 0.12 µg/mL, an MIC (Porphyromonas spp.; KUB No. 6666 Porphyromonas gingivalis) of no more than 0.12 µg/mL and an MIC (Porphyromonas spp.; KUB No. 6667 Porphyromonas gingivalis) of no more than 0.12 µg/mL. The MIC (Porphyromonas spp.; KUB No. 6668 Porphyromonas gingivalis) was no more than 0.12 µg/mL, the MIC (Porphyromonas spp.; KUB No. 6669 Porphyromonas gingivalis) was no more than 0.12 µg/mL and the MIC (Porphyromonas spp.; KUB No. 6670 Porphyromonas gingivalis) was no more than 0.12 µg/mL. For the same molecule, the MIC (Porphyromonas spp.; KUB No. 6671 Porphyromonas gingivalis) was no more than 0.12 µg/mL and the MIC (Porphyromonas spp.; KUB No. 6672 Porphyromonas gingivalis) was no more than 0.12 µg/mL.
